Test system: MV-4-11 cells
Assay: Gene expression microarray analysis (Affymetrix PrimeView) and GSEA
Format: cell-based, human
Parameters: RFU PODN (11730768_x_at) / Fold change /veh PODN (11730768_x_at) / RFU LINC00158 (11744669_a_at) / Fold change /veh LINC00158 (11744669_a_at) / RFU DUSP10 (11751237_a_at) / Fold change /veh DUSP10 (11751237_a_at) / RFU ID3 (11757404_x_at) / Fold change /veh ID3 (11757404_x_at) / RFU PLEKHG5 (11737974_s_at) / Fold change /veh PLEKHG5 (11737974_s_at) / RFU LRRC4B (11730491_at) / Fold change /veh LRRC4B (11730491_at) / RFU GIMAP4 (11747438_a_at) / Fold change /veh GIMAP4 (11747438_a_at) / RFU KRT8 (11758183_x_at) / Fold change /veh KRT8 (11758183_x_at) / RFU CNN1 (11734310_a_at) / Fold change /veh CNN1 (11734310_a_at) / RFU VPS37D (11726825_at) / Fold change /veh VPS37D (11726825_at) / RFU C10orf10 (11716522_x_at) / Fold change /veh C10orf10 (11716522_x_at) / RFU KIR2DL2 /// KIR2DL4 /// KIR2DL5A /// KIR2DL5B /// KIR2DS1 /// KIR2DS2 /// KIR2DS3 /// KIR2DS4 /// KIR3DL3 /// KIR3DL3 /// KIR3DS1 (11738374_at) / Fold change /veh KIR2DL2 /// KIR2DL4 /// KIR2DL5A /// KIR2DL5B /// KIR2DS1 /// KIR2DS2 /// KIR2DS3 /// KIR2DS4 /// KIR3DL3 /// KIR3DL3 /// KIR3DS1 (11738374_at) / RFU C1QL1 (11718748_at) / Fold change /veh C1QL1 (11718748_at) / RFU TMPRSS4 (11747572_a_at) / Fold change /veh TMPRSS4 (11747572_a_at) / RFU HAMP (11756126_x_at) / Fold change /veh HAMP (11756126_x_at) / RFU RNFT2 (11725882_a_at) / Fold change /veh RNFT2 (11725882_a_at) / RFU NR4A2 (11747474_a_at) / Fold change /veh NR4A2 (11747474_a_at) / RFU ABCC12 (11746883_a_at) / Fold change /veh ABCC12 (11746883_a_at) / RFU TMEM136 (11760407_x_at) / Fold change /veh TMEM136 (11760407_x_at) / RFU CLDN22 /// WWC2 (11732394_at) / Fold change /veh CLDN22 /// WWC2 (11732394_at) / RFU HLA-DPB1 (11760878_x_at) / Fold change /veh HLA-DPB1 (11760878_x_at) / RFU SPINT1 (11716480_a_at) / Fold change /veh SPINT1 (11716480_a_at) / RFU GAP43 (11754022_s_at) / Fold change /veh GAP43 (11754022_s_at) / RFU A4GNT (11735810_at) / Fold change /veh A4GNT (11735810_at) / RFU PRB3 (11715151_x_at) / Fold change /veh PRB3 (11715151_x_at) / RFU TUBB4B (11761932_at) / Fold change /veh TUBB4B (11761932_at) / RFU CAPN14 (11732068_a_at) / Fold change /veh CAPN14 (11732068_a_at) / RFU TMCC2 (11721928_a_at) / Fold change /veh TMCC2 (11721928_a_at) / RFU IRGQ (11745062_a_at) / Fold change /veh IRGQ (11745062_a_at) / RFU FAM174B (11720279_a_at) / Fold change /veh FAM174B (11720279_a_at) / RFU TMPRSS4 (11748680_a_at) / Fold change /veh TMPRSS4 (11748680_a_at) / RFU FAM212B (11763350_a_at) / Fold change /veh FAM212B (11763350_a_at) / RFU PLEKHG5 (11743358_a_at) / Fold change /veh PLEKHG5 (11743358_a_at) / RFU ZSCAN30 (11745921_a_at) / Fold change /veh ZSCAN30 (11745921_a_at) / RFU CMKLR1 (11741424_a_at) / Fold change /veh CMKLR1 (11741424_a_at) / RFU LOC101060620 /// MAPK8IP1 (11723275_at) / Fold change /veh LOC101060620 /// MAPK8IP1 (11723275_at) / RFU SPTSSB (11747773_x_at) / Fold change /veh SPTSSB (11747773_x_at) / RFU PRSS12 (11739890_at) / Fold change /veh PRSS12 (11739890_at) / RFU BIN1 (11741810_x_at) / Fold change /veh BIN1 (11741810_x_at) / RFU WNT11 (11732464_a_at) / Fold change /veh WNT11 (11732464_a_at) / RFU C10orf10 (11716521_a_at) / Fold change /veh C10orf10 (11716521_a_at) / RFU C5orf56 (11738089_at) / Fold change /veh C5orf56 (11738089_at) / RFU CYB561 (11721691_x_at) / Fold change /veh CYB561 (11721691_x_at) / RFU ANKRD19P (11752326_a_at) / Fold change /veh ANKRD19P (11752326_a_at) / RFU OR2T12 /// OR2T33 /// OR2T8 (11738714_s_at) / Fold change /veh OR2T12 /// OR2T33 /// OR2T8 (11738714_s_at) / RFU VCAN (11748164_a_at) / Fold change /veh VCAN (11748164_a_at) / RFU JSRP1 (11732532_at) / Fold change /veh JSRP1 (11732532_at) / RFU KRTAP10-11 (11738290_x_at) / Fold change /veh KRTAP10-11 (11738290_x_at) / RFU MYO3A (11730013_a_at) / Fold change /veh MYO3A (11730013_a_at) / RFU EBF3 (11725865_a_at) / Fold change /veh EBF3 (11725865_a_at) / RFU CAMK2N1 (11719241_x_at) / Fold change /veh CAMK2N1 (11719241_x_at) / RFU C5orf56 (11738088_a_at) / Fold change /veh C5orf56 (11738088_a_at) / RFU OLFML3 (11715873_a_at) / Fold change /veh OLFML3 (11715873_a_at) / RFU LOC100653217 /// NTM (11731650_a_at) / Fold change /veh LOC100653217 /// NTM (11731650_a_at) / RFU MAPK11 (11762145_a_at) / Fold change /veh MAPK11 (11762145_a_at) / RFU FIZ1 (11724087_x_at) / Fold change /veh FIZ1 (11724087_x_at) / RFU OASL (11726364_x_at) / Fold change /veh OASL (11726364_x_at) / RFU SOX15 (11748057_x_at) / Fold change /veh SOX15 (11748057_x_at) / RFU CD79A (11719716_a_at) / Fold change /veh CD79A (11719716_a_at) / RFU HIST1H1D (11736915_at) / Fold change /veh HIST1H1D (11736915_at) / RFU CASKIN2 (11723855_a_at) / Fold change /veh CASKIN2 (11723855_a_at) / RFU LOC730098 (11760151_x_at) / Fold change /veh LOC730098 (11760151_x_at) / RFU OR4N2 (11742367_at) / Fold change /veh OR4N2 (11742367_at) / RFU PRRT2 (11749266_a_at) / Fold change /veh PRRT2 (11749266_a_at) / RFU SNX32 (11753110_a_at) / Fold change /veh SNX32 (11753110_a_at) / RFU CDHR5 (11726645_a_at) / Fold change /veh CDHR5 (11726645_a_at) / RFU RCAN1 (11760418_a_at) / Fold change /veh RCAN1 (11760418_a_at) / RFU FAM167A (11723789_a_at) / Fold change /veh FAM167A (11723789_a_at) / RFU FAM26E (11764081_at) / Fold change /veh FAM26E (11764081_at) / RFU ISYNA1 (11749810_s_at) / Fold change /veh ISYNA1 (11749810_s_at) / RFU ACY1 (11761880_at) / Fold change /veh ACY1 (11761880_at) / RFU 11764098_at / Fold change /veh 11764098_at / RFU SAMD14 (11745864_x_at) / Fold change /veh SAMD14 (11745864_x_at) / RFU NPB (11741838_a_at) / Fold change /veh NPB (11741838_a_at) / RFU TMPRSS6 (11731388_a_at) / Fold change /veh TMPRSS6 (11731388_a_at) / RFU KRTAP10-2 (11738614_at) / Fold change /veh KRTAP10-2 (11738614_at) / RFU ARHGAP8 /// PRR5-ARHGAP8 (11727945_x_at) / Fold change /veh ARHGAP8 /// PRR5-ARHGAP8 (11727945_x_at) / RFU KRTAP5-7 /// NADSYN1 (11734609_at) / Fold change /veh KRTAP5-7 /// NADSYN1 (11734609_at) / RFU RASL12 (11751679_a_at) / Fold change /veh RASL12 (11751679_a_at) / RFU CDKN2B (11736163_a_at) / Fold change /veh CDKN2B (11736163_a_at) / RFU PRF1 (11729649_at) / Fold change /veh PRF1 (11729649_at) / RFU, ZNF638 /// ZNF638-IT1 / Fold change vs veh, ZNF638 /// ZNF638-IT1 / RFU, PANK3 / Fold change vs veh, PANK3 / RFU, SH3YL1 / Fold change vs veh, SH3YL1 / RFU, ZEB2 / Fold change vs veh, ZEB2 / RFU, NRIP1 / Fold change vs veh, NRIP1 / RFU, PTTG1IP / Fold change vs veh, PTTG1IP / RFU, CAPN2 / Fold change vs veh, CAPN2 / RFU, MED14 / Fold change vs veh, MED14 / RFU, SNORA58 / Fold change vs veh, SNORA58 / RFU, C1orf63 / Fold change vs veh, C1orf63 / RFU, LRRFIP1 / Fold change vs veh, LRRFIP1 / RFU, NDUFAF7 / Fold change vs veh, NDUFAF7 / RFU, SLC12A2 / Fold change vs veh, SLC12A2 / RFU, IBTK / Fold change vs veh, IBTK / RFU, ESF1 / Fold change vs veh, ESF1 / Fold change vs veh, TMEM50B / RFU, TAOK1 / Fold change vs veh, TAOK1 / RFU, ACBD3 / Fold change vs veh, ACBD3 / RFU, TMA16 / Fold change vs veh, TMA16 / RFU, RWDD3 / Fold change vs veh, RWDD3 / RFU, BCAT1 / Fold change vs veh, BCAT1 / RFU, EDEM3 / Fold change vs veh, EDEM3 / RFU, TMEM33 / Fold change vs veh, TMEM33 / RFU, WDR75 / Fold change vs veh, WDR75 / RFU, AHCTF1 / Fold change vs veh, AHCTF1 / RFU, TFRC / Fold change vs veh, TFRC / RFU, ZDHHC17 / Fold change vs veh, ZDHHC17 / RFU, NOM1 / Fold change vs veh, NOM1 / RFU, ARL8B / Fold change vs veh, ARL8B / RFU, ZBTB11 / Fold change vs veh, ZBTB11 / RFU, TAMM41 / Fold change vs veh, TAMM41 / RFU, KIAA1704 /// LOC100996395 / Fold change vs veh, KIAA1704 /// LOC100996395 / RFU, ING1 / Fold change vs veh, ING1 / RFU, TRMT61B / Fold change vs veh, TRMT61B / RFU, FUBP3 / Fold change vs veh, FUBP3 / RFU, TP53 / Fold change vs veh, TP53 / RFU, TNKS2 / Fold change vs veh, TNKS2 / RFU, ZFP14 / Fold change vs veh, ZFP14 / RFU, ACTR2 / Fold change vs veh, ACTR2 / RFU, PPP3R1 / Fold change vs veh, PPP3R1 / RFU, PIK3R1 / Fold change vs veh, PIK3R1 / RFU, HNRNPA1 / Fold change vs veh, HNRNPA1 / RFU, RNF170 / Fold change vs veh, RNF170 / RFU, ZNF28 / Fold change vs veh, ZNF28 / RFU, RNGTT / Fold change vs veh, RNGTT / RFU, OGT / Fold change vs veh, OGT / RFU, BRD1 / Fold change vs veh, BRD1 / RFU, MARS / Fold change vs veh, MARS / RFU, ZNF655 / Fold change vs veh, ZNF655 / RFU, FAHD1 / Fold change vs veh, FAHD1 / RFU, BDP1 / Fold change vs veh, BDP1 / RFU, LRRCC1 / Fold change vs veh, LRRCC1 / RFU, ARID1A / Fold change vs veh, ARID1A / RFU, ZNF146 / Fold change vs veh, ZNF146 / RFU, ZNF330 / Fold change vs veh, ZNF330 / RFU, GPN3 / Fold change vs veh, GPN3 / RFU, C9orf123 / Fold change vs veh, C9orf123 / RFU, N4BP2L2 / Fold change vs veh, N4BP2L2 / RFU, ARFIP1 / Fold change vs veh, ARFIP1 / RFU, FAM179B / Fold change vs veh, FAM179B / RFU, BCL10 / Fold change vs veh, BCL10 / RFU, UHRF1BP1L / Fold change vs veh, UHRF1BP1L / RFU, BET1 / Fold change vs veh, BET1 / RFU, CNOT2 / Fold change vs veh, CNOT2 / RFU, ZNF268 / Fold change vs veh, ZNF268 / Fold change vs veh, ZNF507 / RFU, DGCR2 / Fold change vs veh, DGCR2 / RFU, WDSUB1 / Fold change vs veh, WDSUB1 / Fold change vs veh, HSP90B1 /// MIR3652 / RFU, ADSS / Fold change vs veh, ADSS / RFU, GK / Fold change vs veh, GK / RFU, ZNF148 / Fold change vs veh, ZNF148 / RFU, TAF9 / Fold change vs veh, TAF9 / RFU, SLC1A5 / Fold change vs veh, SLC1A5 / RFU, SLMO2 / Fold change vs veh, SLMO2 / RFU, ABCC4 / Fold change vs veh, ABCC4 / RFU, LOC101060439 /// RAP1B / Fold change vs veh, LOC101060439 /// RAP1B / RFU, RFX7 / Fold change vs veh, RFX7 / RFU, GTPBP10 / Fold change vs veh, GTPBP10 / RFU, CNEP1R1 / Fold change vs veh, CNEP1R1 / RFU, BIVM-ERCC5 /// ERCC5 / Fold change vs veh, BIVM-ERCC5 /// ERCC5 / RFU, ILF3 / Fold change vs veh, ILF3 / RFU 11762660_at / Fold change /veh 11762660_at / RFU VCAN (11757783_s_at) / Fold change /veh VCAN (11757783_s_at) / RFU DDX43 (11728927_at) / Fold change /veh DDX43 (11728927_at) / RFU KRT8 (11758188_x_at) / Fold change /veh KRT8 (11758188_x_at) / RFU NKD1 (11759106_at) / Fold change /veh NKD1 (11759106_at) / RFU SRD5A1 (11742802_a_at) / Fold change /veh SRD5A1 (11742802_a_at) / RFU TPSAB1 /// TPSB2 (11721975_s_at) / Fold change /veh TPSAB1 /// TPSB2 (11721975_s_at) / RFU GSTM3 (11746129_a_at) / Fold change /veh GSTM3 (11746129_a_at) / RFU IL23R (11737362_x_at) / Fold change /veh IL23R (11737362_x_at) / RFU TMEM51 (11727254_a_at) / Fold change /veh TMEM51 (11727254_a_at) / RFU PIWIL2 (11732686_x_at) / Fold change /veh PIWIL2 (11732686_x_at) / RFU ORM1 (11744905_x_at) / Fold change /veh ORM1 (11744905_x_at) / RFU CCDC152 (11743942_at) / Fold change /veh CCDC152 (11743942_at) / RFU ECM1 (11717891_a_at) / Fold change /veh ECM1 (11717891_a_at) / RFU IL23R (11748794_a_at) / Fold change /veh IL23R (11748794_a_at) / RFU TNFAIP8L3 (11732012_x_at) / Fold change /veh TNFAIP8L3 (11732012_x_at) / RFU MBOAT4 (11741988_at) / Fold change /veh MBOAT4 (11741988_at) / RFU 11764193_at / Fold change /veh 11764193_at / RFU TMEM53 (11763286_at) / Fold change /veh TMEM53 (11763286_at) / RFU MAGEB2 (11727129_at) / Fold change /veh MAGEB2 (11727129_at) / RFU TMEM200A (11744735_a_at) / Fold change /veh TMEM200A (11744735_a_at) / RFU CCDC152 (11751479_a_at) / Fold change /veh CCDC152 (11751479_a_at) / RFU FAM211A (11726209_a_at) / Fold change /veh FAM211A (11726209_a_at) / RFU RGS16 (11746705_a_at) / Fold change /veh RGS16 (11746705_a_at) / RFU VCAN (11755009_s_at) / Fold change /veh VCAN (11755009_s_at) / RFU RHOB (11743442_s_at) / Fold change /veh RHOB (11743442_s_at) / RFU RGS16 (11720943_a_at) / Fold change /veh RGS16 (11720943_a_at) / RFU RGS16 (11720944_at) / Fold change /veh RGS16 (11720944_at) / RFU, VPS4B / Fold change vs veh, VPS4B / RFU, CREB1 / Fold change vs veh, CREB1 / RFU, DNAJC13 / Fold change vs veh, DNAJC13 / RFU, GNAQ / Fold change vs veh, GNAQ / RFU, CDK5R1 / Fold change vs veh, CDK5R1 / RFU, ZRANB3 / Fold change vs veh, ZRANB3 / RFU, CUL4A / Fold change vs veh, CUL4A / RFU, CCNY / Fold change vs veh, CCNY / RFU, UFL1 / Fold change vs veh, UFL1 / RFU, COG3 / Fold change vs veh, COG3 / RFU, DIAPH2 / Fold change vs veh, DIAPH2 / RFU, SKA2 / Fold change vs veh, SKA2 / RFU, AFF3 / Fold change vs veh, AFF3 / RFU, LMF1 / Fold change vs veh, LMF1 / RFU, IPO11 / Fold change vs veh, IPO11 / RFU, DFFB / Fold change vs veh, DFFB / RFU, FOXP1 / Fold change vs veh, FOXP1 / RFU, CARD8 / Fold change vs veh, CARD8 / RFU, STRN3 / Fold change vs veh, STRN3 / RFU, ADK / Fold change vs veh, ADK / RFU, RASSF2 / Fold change vs veh, RASSF2 / RFU, WIPF1 / Fold change vs veh, WIPF1 / RFU, LARP1B / Fold change vs veh, LARP1B / RFU, RASA1 / Fold change vs veh, RASA1 / RFU, RB1 / Fold change vs veh, RB1 / RFU, PPFIA1 / Fold change vs veh, PPFIA1 / RFU, MAT2A / Fold change vs veh, MAT2A / RFU, CCT5 / Fold change vs veh, CCT5 / RFU, WDR92 / Fold change vs veh, WDR92 / RFU, CUX1 / Fold change vs veh, CUX1 / RFU, TTC7A / Fold change vs veh, TTC7A / RFU, TMEM135 / Fold change vs veh, TMEM135 / RFU, DEPTOR / Fold change vs veh, DEPTOR / RFU, CPM / Fold change vs veh, CPM / RFU, DNAJB6 / Fold change vs veh, DNAJB6 / RFU, CACNA2D3 / Fold change vs veh, CACNA2D3 / RFU, DTX4 / Fold change vs veh, DTX4 / RFU, TFCP2 / Fold change vs veh, TFCP2 / RFU, GMCL1 /// GMCL1P1 / Fold change vs veh, GMCL1 /// GMCL1P1 / RFU, AEBP2 / Fold change vs veh, AEBP2 / RFU, SNHG1 /// SNORD22 /// SNORD25 /// SNORD26 /// SNORD27 /// SNORD28 /// SNORD29 /// SNORD31 / Fold change vs veh, SNHG1 /// SNORD22 /// SNORD25 /// SNORD26 /// SNORD27 /// SNORD28 /// SNORD29 /// SNORD31 / Fold change (Aza/veh), C12orf56 (ProbeSet 11735607_a_at) / Fold change (ACY-1035/veh), C12orf56 (ProbeSet 11735607_a_at) / Fold change (Aza/veh), FGFR1OP (ProbeSet 11751329_s_at) / Fold change (ACY-1035/veh), FGFR1OP (ProbeSet 11751329_s_at) / Fold change (Aza/veh), VPS36 (ProbeSet 11739960_a_at) / Fold change (ACY-1035/veh), VPS36 (ProbeSet 11739960_a_at) / RFU SYPL1 (11715823_x_at) / Fold change /veh SYPL1 (11715823_x_at) / RFU IGFBP7 (11715501_s_at) / Fold change /veh IGFBP7 (11715501_s_at) / RFU REEP3 (11722064_at) / Fold change /veh REEP3 (11722064_at) / RFU IGLL1 (11728026_x_at) / Fold change /veh IGLL1 (11728026_x_at): dose or concentration left out as unconfirmed
Conditions: MV-4-11 cells, 48 hours

Compound: Nc1ccc(-c2cccs2)cc1NC(=O)c1ccc2c(c1)cc(C1CC1)n2CCN1CCOCC1 [ACY-1035]
- Fold change /veh VCAN (11748164_a_at): 1.07
